From US20230173018A1, “CASPOFUNGIN DERIVATIVES AND ASSAYS FOR EVALUATING ANTIFUNGAL TREATMENT EFFICACY” (priority 2020, published 2023)
In brackets after ≈: the same amount, converted by molar mass.

How the values were obtained:
Assay type in all cases: cell-based
[1] = test system: C. albicans CG72; test: microbe, parasite or virus in culture; details: strain no. 7, CG72, parental CAM, pKE1:GFP-YPT72
Text: (§1) The antifungal activities of compounds 1a, 1 and 2 (collectively: caspofungin derivatives) were compared to that of caspofungin and CSF-BOD using a panel of 49 C. albicans and C. glabrata strains (Tables 1 and 2). The panel included ATCC strains and clinical isolates as well a collection of caspofungin-responsive strains and their corresponding isogenic caspofungin-resistant derivatives, constructed by introducing point mutations within and near the defined hotspots in the FKS1 and/or FKS2 genes of the GS complex. Minimal inhibitory concentration (MIC) values for all strains were determined using the broth double dilution method and are summarized in FIG. 2 and Table 2. […] The clinical breakpoints (threshold) for caspofungin-resistance in C. albicans and C. glabrata are 1 μg/mL and 0.5 μg/mL, respectively.

[2] = test system: C. albicans DPL1015 (DP-A15); test: microbe, parasite or virus in culture; details: strain no. 2, DPL1015 (DP-A15), parental SC5314, FKS1 mutant HS1-S645S/P
Text: as §1

[3] = test system: C. albicans DPL1016 (DP-A15-10); test: microbe, parasite or virus in culture; details: strain no. 3, DPL1016 (DP-A15-10), parental SC5314, FKS1 mutant HS1-S645P
Text: as §1

[4] = test system: C. albicans SN95; test: microbe, parasite or virus in culture; details: strain no. 8, SN95, parental RM1000
Text: as §1

[5] = test system: C. albicans T-2068 (DP-C42); test: microbe, parasite or virus in culture; details: strain no. 4, T-2068 (DP-C42), parental SC5314, FKS1 HS1-F641S mutation
Text: as §1

[6] = test system: C. albicans T-2069 (DP-85); test: microbe, parasite or virus in culture; details: strain no. 14, T-2069 (DP-85), clinical isolate, FKS1 HS1-S645F mutation
Text: as §1

[7] = test system: C. albicans T-2074 (DP-122); test: microbe, parasite or virus in culture; details: strain no. 12, T-2074 (DP-122), clinical isolate, FKS1 HS1-P649H mutation
Text: as §1

[8] = test system: C. albicans T-2076 (DP-194); test: microbe, parasite or virus in culture; details: strain no. 13, T-2076 (DP-194), clinical isolate, FKS1 HS1-S645F, HS2-R1361R/H mutation
Text: as §1

[9] = test system: C. albicans T-2077 (DP-205); test: microbe, parasite or virus in culture; details: strain no. 15, T-2077 (DP-205), clinical isolate, FKS1 HS1-S645P mutation
Text: as §1

[10] = test system: C. glabrata CST78; test: microbe, parasite or virus in culture; details: strain no. 26, C. glabrata CST78
Text: as §1

[11] = test system: C. glabrata DPL1086; test: microbe, parasite or virus in culture; details: strain no. 17, DPL1086, parental ATCC 90030, FKS1 mutant HS1-S629P
Text: as §1

[12] = test system: C. glabrata T-985 (11-076); test: microbe, parasite or virus in culture; details: strain no. 49, T-985 (11-076), clinical isolate
Text: as §1

[13] = test system: C. glabrata TGL00054; test: microbe, parasite or virus in culture; details: strain no. 19, TGL00054, parental CST109, FKS2 mutant
Text: as §1

[14] = test system: C. glabrata TGL00056; test: microbe, parasite or virus in culture; details: strain no. 22, TGL00056, parental CST34, FKS mutant
Text: as §1

[15] = test system: C. glabrata TGL00065; test: microbe, parasite or virus in culture; details: strain no. 27, TGL00065, FKS mutant
Text: as §1

[16] = test system: C. glabrata TGL00091; test: microbe, parasite or virus in culture; details: strain no. 35, TGL00091, FKS mutant
Text: as §1

[17] = test system: C. glabrata TGL00107; test: microbe, parasite or virus in culture; details: strain no. 23, TGL00107, parental CST34, FKS mutant
Text: as §1

[18] = test system: C. glabrata TGL00253; test: microbe, parasite or virus in culture; details: strain no. 20, TGL00253, parental CST109, FKS2 mutant
Text: as §1

[19] = test system: C. glabrata TGL00256; test: microbe, parasite or virus in culture; details: strain no. 24, TGL00256, parental CST34, FKS mutant
Text: as §1

[20] = test system: C. glabrata TGL00258; test: microbe, parasite or virus in culture; details: strain no. 25, TGL00258, parental CST34, FKS mutant
Text: as §1

[21] = test system: C. glabrata TGL00263; test: microbe, parasite or virus in culture; details: strain no. 28, TGL00263, parental CST78, FKS mutant
Text: as §1

[22] = test system: C. glabrata TGL00264; test: microbe, parasite or virus in culture; details: strain no. 29, TGL00264, parental CST78, FKS mutant
Text: as §1

[23] = test system: C. glabrata TGL00265; test: microbe, parasite or virus in culture; details: strain no. 30, TGL00265, parental CST78, FKS mutant
Text: as §1

[24] = test system: C. glabrata TGL00275; test: microbe, parasite or virus in culture; details: strain no. 32, TGL00275, FKS mutant
Text: as §1

[25] = test system: C. glabrata TGL00277; test: microbe, parasite or virus in culture; details: strain no. 33, TGL00277, parental EF1620, FKS mutant
Text: as §1

[26] = test system: C. glabrata TGL00291; test: microbe, parasite or virus in culture; details: strain no. 36, TGL00291, parental BG2, FKS mutant
Text: as §1

[27] = test system: C. glabrata TGL00293; test: microbe, parasite or virus in culture; details: strain no. 37, TGL00293, parental BG2, FKS mutant
Text: as §1

[28] = test system: C. glabrata TGL00294; test: microbe, parasite or virus in culture; details: strain no. 38, TGL00294, parental BG2, FKS mutant
Text: as §1

[29] = test system: C. albicans ATCC 10231; test: MIC, broth double dilution; details: strain no. 11, C. albicans ATCC 10231
Text: as §1

[30] = test system: C. albicans BWP17; test: MIC, broth double dilution; details: strain no. 9, BWP17, parental RM1000
Text: as §1

[31] = test system: C. albicans SC5314; test: MIC, broth double dilution; details: strain no. 1, C. albicans SC5314, WT
Text: as §1

[32] = test system: C. glabrata ATCC 15126; test: MIC, broth double dilution; details: strain no. 41, C. glabrata ATCC 15126
Text: as §1

[33] = test system: C. glabrata T-191 (11-331); test: MIC, broth double dilution; details: strain no. 43, T-191 (11-331), clinical isolate
Text: as §1

[34] = test system: C. glabrata T-982 (11-181); test: MIC, broth double dilution; details: strain no. 46, T-982 (11-181), clinical isolate
Text: as §1

Compound	MIC [1] [µg/mL]	MIC [2] [µg/mL]	MIC [3] [µg/mL]	MIC [4] [µg/mL]	MIC [5] [µg/mL]	MIC [6] [µg/mL]	MIC [7] [µg/mL]	MIC [8] [µg/mL]	MIC [9] [µg/mL]	MIC [10] [µg/mL]	MIC [11] [µg/mL]	MIC [12] [µg/mL]	MIC [13] [µg/mL]	MIC [14] [µg/mL]	MIC [15] [µg/mL]	MIC [16] [µg/mL]	MIC [17] [µg/mL]	MIC [18] [µg/mL]	MIC [19] [µg/mL]	MIC [20] [µg/mL]	other results
CC[C@H](C)C[C@H](C)CCCCCCCCC(=O)N[C@H]1C[C@@H](O)[C@@H](NCCN)NC(=O)[C@@H]2[C@@H](O)CCN2C(=O)[C@H]([C@H](O)CCN)NC(=O)[C@H]([C@H](O)[C@@H](O)c2ccc(OCc3cn(CCCNC(=O)c4ccc(-c5c6ccc(=[N+](C)C)cc-6oc6cc(N(C)C)ccc56)c(C(=O)[O-])c4)nn3)cc2)NC(=O)[C@@H]2C[C@@H](O)CN2C(=O)[C@H]([C@@H](C)O)NC1=O [Compound 1]	0.5 (≈ 0.304 µM)	16 (≈ 9.73 µM)	64 (≈ 38.9 µM)	0.5 (≈ 0.304 µM)	64 (≈ 38.9 µM)	64 (≈ 38.9 µM)	16 (≈ 9.73 µM)	32 (≈ 19.5 µM)	>64	1 (≈ 0.608 µM)	8 (≈ 4.87 µM)	1 (≈ 0.608 µM)	>64	>64	>64	>64	>64	>64	4 (≈ 2.43 µM)	>64	MIC [21]: >64 µg/mL; MIC [22]: >64 µg/mL; MIC [23]: >64 µg/mL; MIC [24]: 64 µg/mL (≈ 38.9 µM); MIC [25]: >64 µg/mL; MIC [26]: >64 µg/mL; MIC [27]: >64 µg/mL; MIC [28]: >64 µg/mL; MIC [29]: 0.5 µg/mL (≈ 0.304 µM); MIC [30]: 0.25 µg/mL (≈ 0.152 µM); MIC [31]: 0.25 µg/mL (≈ 0.152 µM); MIC [32]: 1 µg/mL (≈ 0.608 µM); MIC [33]: 0.5 µg/mL (≈ 0.304 µM); MIC [34]: 0.5 µg/mL (≈ 0.304 µM)
C#CCOc1ccc([C@H](O)[C@@H](O)[C@@H]2NC(=O)[C@@H]3C[C@@H](O)CN3C(=O)[C@H]([C@@H](C)O)NC(=O)[C@@H](NC(=O)CCCCCCCC[C@@H](C)C[C@@H](C)CC)C[C@@H](O)[C@@H](NCCN)NC(=O)[C@@H]3[C@@H](O)CCN3C(=O)[C@H]([C@H](O)CCN)NC2=O)cc1 [Compound 1a]	0.063 (≈ 0.0557 µM)	8 (≈ 7.07 µM)	16 (≈ 14.1 µM)	0.125 (≈ 0.11 µM)	16 (≈ 14.1 µM)	32 (≈ 28.3 µM)	16 (≈ 14.1 µM)	32 (≈ 28.3 µM)	>64	0.5 (≈ 0.442 µM)	4 (≈ 3.54 µM)	0.5 (≈ 0.442 µM)	>64	>64	>64	>64	>64	>64	2 (≈ 1.77 µM)	>64	MIC [21]: >64 µg/mL; MIC [22]: >64 µg/mL; MIC [23]: >64 µg/mL; MIC [24]: 16 µg/mL (≈ 14.1 µM); MIC [25]: >64 µg/mL; MIC [26]: >64 µg/mL; MIC [27]: >64 µg/mL; MIC [28]: >64 µg/mL; MIC [29]: 0.125 µg/mL (≈ 0.11 µM); MIC [30]: 0.063 µg/mL (≈ 0.0557 µM); MIC [31]: 0.125 µg/mL (≈ 0.11 µM); MIC [32]: 1 µg/mL (≈ 0.884 µM); MIC [33]: 0.25 µg/mL (≈ 0.221 µM); MIC [34]: 0.25 µg/mL (≈ 0.221 µM)
